Results on 3 compounds are retold here after patent US20150284362A1, “CARBAZOLE-CONTAINING AMIDES, CARBAMATES, AND UREAS AS CRYPTOCHROME MODULATORS” (ReSet Therapeutics, Inc., priority 2014, published 2015).

For test [1], the system named is core clock gene mRNAs in liver. The test can be described thus: Four day study, liver core clock gene mRNA, ICR mice. It counts as in vivo, mouse. To be noted: 50 mg/kg PO BID 4 days, ZT6. How it is done: Male ICR mice (weighing 30-35 g), obtained from Charles River Laboratories (Hollister, Calif.), were used for the experiment following at least 3 days of acclimation. Mice were dosed with vehicle (WFI or 10% Kolliphor) or compound (50 mg/kg, dose volume 5 mL/kg, PO) for 4 days BID (twice a day), beginning in the afternoon of the first day. The last dose of compound or vehicle was administered on the morning of harvest. On the day of harvest (6 hours following the final dose), mice were euthanized by CO2 asphyxiation and 50 mg of liver tissue was excised and placed in a tube containing 500 μl of RNA later.
E.Z.N.A.® HP Total RNA Isolation Kits (R6812-01 and the protocol described in the Manual, Revised 2010) were utilized to prepare and isolate RNA from the liver samples. To prepare the RNA samples, 10-30 mg of sample was removed from RNA-Later and placed in a 1.5 ml microfuge tube. […] The cleared supernatant was transferred by pipetting to a DNA Clearance Column Pre-inserted in a 2 mL Collection Tube. The assembled column was centrifuged at 13,000×g for 1 minute, and the flow-through was saved. An equal volume (700 μl) of 70% ethanol was added to the lysate and mixed. The sample was then applied to a HiBind RNA spin column placed into a 2 ml collection tube, which was centrifuged at 10,000×g for 60 seconds at room temperature. RNA Wash Buffer I (250 μl) was added by pipetting directly onto a new HiBind RNA column inserted in a 2 ml collection tube. The assembled column was centrifuged at 10,000×g for 60 seconds. The RNA column was placed into a new 2 ml collection tube. […] The column with bound RNA was incubated at room temperature (25-30° C.) for 15 minutes. RNA Wash Buffer I (500 μl) was added to the column and placed on a bench top for 2 minutes. After centrifuging at 10,000×g for 60 seconds, discarding the flow-through, 500 μl of RNA Wash Buffer II was added and centrifuged at 10,000×g for 60 seconds. Another 500 μl of RNA Wash Buffer II was added and the column assembly was centrifuged at 10,000×g for 60 seconds. The column was centrifuged for 2 minutes at maximum speed to completely dry the HiBind matrix. The column was placed in a clean 1.5 ml microcentrifuge tube and 40-70 μl of molecular biology grade water is added. After sitting for 1 minute, the column was centrifuged for 2 minutes at maximum speed to elute the RNA. The isolated RNA was collected into the collection tube.
RediPlate 96 RiboGreen RNA Quantification Kit (Invitrogen) RediPlate standard curve was prepared by transferring 20 μl reconstituted RNA standard to a RediPlate well reconstituted in 180 μl RediPlate TE buffer. For liver RNAs prepared from 30-100 mg of tissue using a kit similar to the Omega Bio-Tek HP Total RNA Kit and eluted in RNAse-free water in a volume of 50 μl (microliters), 5 μl of the total RNA is diluted in 195 μl of RediPlate TE buffer (1:40 dilution of RNA), mix. […] Alternatively, one can use the FlexStation 3 with Ex 488 nm and Em 525 nm and a Cutoff of 515 nm.

Test [2] relates to C57/Bl6J DIO mice. The test can be described thus: Increasing dosages of Compound 72 over 7 days in diet-induced obesity (DIO) mouse model. The test is classed as in vivo. Particulars: 30 mg/kg PO QD 7 days. The text has this: (§1) Male C57/Bl6J DIO mice were obtained from The Jackson Laboratory (Sacramento, Calif.). […] Animals were accustomed to these conditions for at least 2 weeks before experimentation and used at approximately 24 weeks of age.
(§2) Significance was accepted when p<0.05.
Male C57/Bl6J DIO mice were obtained from The Jackson Laboratory (Sacramento, Calif.). […] Animals were accustomed to these conditions for at least 2 weeks before experimentation and used at approximately 26 weeks of age.

The test system of test [3] is C57/Bl6J DIO mice. Description: 7 day dosing in diet-induced obesity (DIO) mouse model of type II diabetes. It counts as in vivo. To be noted: 30 mg/kg PO QD 7 days (positive control).
Text: as §1, §2

Procedure for db/db mice: Male db/db mice homozygous for Lepr^db (6 weeks of age), were obtained from The Jackson Laboratory (Bar Harbor, Me.). Mice were group housed on a normal light/dark cycle (lights on: 07:00-19:00 h) with ad libitum access to a standard pelleted mouse diet and water. Animals were accustomed to these conditions for 2 weeks before experimentation. […] At 10:30 pm on the evening prior to endpoint measurement, mice were placed into clean cages and given free access to water, but not food for a period of 12 hours before the fasting blood glucose measurement. On the final day of the study, animals were dosed as normal, and then underwent a tail cut injury 2 hours prior to measurement of fasting blood glucose, to allow recovery from any stress the procedure might cause. Fasting blood glucose (FBG) was assessed from the animals at 10:30 am using an AlphaTRAK glucometer (Abbott Laboratories, USA). Following the FBG measurement blood was collected from each mouse, using a tail milking technique, into a capillary tube. Capillary tubes were centrifuged in a hematocrit (BD Triac 0200) and the resultant plasma transferred to an eppendorff. This sample, labelled as t=0 hr, was frozen at −80° C. to allow later measurement of insulin. At 11:30 am each animal was dosed with 0.5 g/kg of glucose, then blood glucose was measured at t=15, 30, 60, 90 and 120 minutes after glucose load. At the end of the OGTT blood was collected for a t=2 hr insulin determination as described above.
Fasting blood glucose values and glucose measurements taken during the OGTT were averaged and graphed (GraphPad Prism, GraphPad Software, La Jolla, Calif.). The area under the curve (AUC) was calculated for each individual animal. Plasma insulin levels were determined using an Ultrasensitive Insulin ELISA (ALPCO, Salem, N.H.). […] Insulin data was also represented in GraphPad Prism format. Statistical analysis was performed using one-way ANOVA followed by the appropriate post-test. Significance was accepted when p<0.05. Data are presented as mean and S.E.M.

Consider `O=C1C2CCC(C2)N1CC(O)Cn1c2ccc(F)cc2c2cc(F)ccc21` (stereo not drawn) [Compound 48, 2-(3-(3,6-difluoro-9H-carbazol-9-yl)-2-hydroxypropyl)-2-azabicyclo[2.2.1]heptan-3-one], for which, in test [1], the “Cry2 transcripts in liver” value was “decrease” and the “liver Per2 expression” value was “suppression”.
Take `COC1CCCN(CC(O)Cn2c3ccc(F)cc3c3cc(F)ccc32)C1=O` (stereo not drawn) [Compound 57, 1-(3-(3,6-difluoro-9H-carbazol-9-yl)-2-hydroxypropyl)-3-methoxypiperidin-2-one]: the “liver Per2 expression” value in test [1] was “suppression”.
In turn, `CN(CCOc1ccc(CC2SC(=O)NC2=O)cc1)c1ccccn1` (stereo not drawn) [Rosiglitazone] came in with a fasting blood glucose in the test with C57/Bl6J DIO mice [2] of 161.1 ± 8.06 mg/dL. Besides, in the test on C57/Bl6J DIO mice [3], the HOMA-IR is given as 24.60+/−1.42 units, the fasting blood glucose was determined as 153.9 ± 5.05 mg/dL, the “plasma insulin at t=0” value turned out to be 2.70 ± 0.12 ng/mL and the “plasma insulin at t=2 hr” value came to 2.30 ± 0.06 ng/mL. Further, in the test on db/db mice (30 mg/kg PO QD 7 days), the HOMA-IR is listed as 50.58+/−3.52 units, the “plasma insulin at t=0” value came out at 3.05 ± 0.14 ng/mL and the “plasma insulin at t=2 hr” value worked out at 2.28 ± 0.08 ng/mL. This compound displayed a fasting blood glucose with db/db mice (30 mg/kg PO QD 7 days (positive control)) of 280.4 ± 13.66 mg/dL.
